These are literature values, as cited in patent US20190133115A1, “PESTICIDAL SOLUBLE MICRO-EMULSION CONCENTRATE SEED TREATMENT FORMULATIONS” (priority 2017, published 2019).

Molecules are shown by their SMILES.

For the series the following is noted: in alcohols, e.g., ethanol, acetone, and toluene.

Turning to `COCC(=O)N(c1c(C)cccc1C)C(C)C(=O)OC` (racemic) [Metalaxyl, methyl N-(methoxyacetyl)-N-(2,6-xylyl)-DL-alanate], the solubility result was “soluble”.
